Test results taken from patent publication US20240238223A1 (Shenyang Pharmaceutical University, priority 2023, published 2024).
“And” between values parts separate entries of the source, which are not always exact repeats. Identical values can stand only once. Like-named read-outs stand apart in the source and are kept apart here.

Experiments:
[1] = test system: paclitaxel-resistant A549/T cells; experiment: cells; conditions: Homo sapiens, A549, 96 h; for inhibition at 5 µM / inhibition at 10 µM / inhibition at 20 µM: read-out: Growth inhibition rate
Experimental: (§6) After incubation overnight, 100 μL of culture medium supplemented with various concentrations of compounds was added to each well. After incubation for 96 h, 50 μL of methyl thiazolyl tetrazolium (MTT) solution (2 mg/mL) was added to each well and incubated at 37° C. for 4 h. The culture medium was suctioned, and the cells were dissolved in 200 μL of DMSO. The absorbance at 570 nm was measured by using a microplate reader. The growth inhibition rate GI50 was calculated by GraphPadPrism5.

[2] = test system: paclitaxel-resistant A549/T cells; experiment: cells; conditions: Homo sapiens, A549, read-out: GI50 ± SD
Experimental: (§7) Adherent cells: PC-3, HepG-2, HCT-116, and Hela cells were inoculated into a 96-well plate at a density of 1,000-3,500 cells/mL. After incubation overnight, 100 μL of culture medium supplemented with various concentrations of compounds was added to each well. After incubation for 96 h, 50 μL of methyl thiazolyl tetrazolium (MTT) solution (2 mg/mL) was added to each well and incubated at 37° C. for 4 h. The culture medium was suctioned, and the cells were dissolved in 200 μL of DMSO. The absorbance at 570 nm was measured by using a microplate reader. The growth inhibition rate GI50 was calculated by GraphPadPrism5.
(§8) The cells used in the assay included human NSCLC A549 cells and paclitaxel-resistant A549/T cells, human breast cancer MCF-7 cells and paclitaxel-resistant MCF-7/T cells, human breast cancer MX-1 cells and paclitaxel-resistant MX-1/T cells, and human oral epidermoid carcinoma KB cells and vincristine-resistant KB/V cells.
(§9) A549 and A549/T cells were cultured in 1640 Medium, while MX-1, MX-1/T, MCF-7, MCF-7/T, KB, and KB/V cells were cultured in DMEM supplemented with 10% inactivated FBS, 10 mmol/L L-glutamine, 100 U/mL penicillin, and 100 μg/mL streptomycin in a 37° C., 5% CO2 and saturated humidity incubator.
(§10) Cell lines used in the assay included human NSCLC A549 cells and paclitaxel-resistant A549/T cells.

MX-1 cells = experiment: Growth inhibition of parental breast cancer cells; assay type: cell-based; conditions: Homo sapiens, MX1; MX-1 parental cells
Experimental: (§1) The growth inhibition rate GI50 was calculated by GraphPadPrism5.

MCF-7 cells = experiment: Growth inhibition of parental breast cancer cells; assay type: cell-based; conditions: Homo sapiens, MCF7; MCF-7 parental cells
Experimental: as §1

KB cells = experiment: Growth inhibition of parental oral epidermoid carcinoma cells; assay type: cell-based; conditions: Homo sapiens
Experimental: as §1

[3] = test system: vincristine-resistant KB/V cells; experiment: Growth inhibition of vincristine-resistant oral epidermoid carcinoma cells; conditions: for GI50: Homo sapiens, KBV, read-out: GI50 ± SD; for RI: resistance index: ratio of GI50 KB/V to KB
Experimental: as §7, §8, §9

[4] = test system: paclitaxel-resistant MCF-7/T cells; experiment: Growth inhibition of paclitaxel-resistant breast cancer cells; assay type: cell-based, human; conditions: for GI50: Homo sapiens, MCF7, MCF-7/T paclitaxel-resistant cells; for RI: resistance index: ratio of GI50 MCF-7/T to MCF-7
Experimental: as §1

PC-3 = experiment: Cell growth inhibition assay, adherent cells, MTT, 96 h; assay type: cell-based; conditions: Homo sapiens; PC-3, prostatic cancer, 96 h MTT
Experimental: (§2) Human acute myeloid leukemia cells HL-60, human chronic myeloid leukemia cells K562, human prostate cancer cell line PC-3, human hepatoma cells HepG-2, human colon cancer cells HC-T116, and human cervical cancer cell line Hela were purchased from American Type Culture Collection (ATCC). Human acute myeloid leukemia cells MOLM-13 were purchased from DSMZ-Deutsche Sammlung von Mikroorganismen und Zellkulturen GmbH (Braunschweig Germany).
as §1

HepG-2 = experiment: as above; assay type: cell-based; conditions: Homo sapiens, HepG2; HepG-2, liver cancer, 96 h MTT
Experimental: as §2, §1

HCT-116 = experiment: as above; assay type: cell-based; conditions: Homo sapiens; HCT-116, colorectal cancer, 96 h MTT
Experimental: as §2, §1

Hela = experiment: as above; assay type: cell-based; conditions: Homo sapiens, cervical carcinoma, 96 h MTT
Experimental: as §2, §1

K562 = experiment: Cell growth inhibition assay, suspension cells, Trypan Blue counting, 72 h; assay type: cell-based; conditions: Homo sapiens, K562, leukemia
Source text: as §2
(§3) Suspension cells: Leukemia cells HL-60, MOLM-13, and K562 were inoculated into a 24-well plate at a density of 0.5-1×10^5 cells/mL. Subsequently, the cells were incubated with different concentrations of compounds in an incubator for 72 h. Then, the culture plate was removed from the incubator. In each well, the cells and the compounds were mixed well; 50 μL of cell suspension was transferred and mixed well with 50 μL of Trypan Blue (0.4%), followed by counting microscopically.
(§4) Cell growth inhibition rate was calculated according to the following formula. The growth inhibition rate GI50 (the concentration that results in inhibiting cell growth by 50%) was calculated by GraphPadPrism5.
(§5) Growth inhibition rate=(1−Cell count of the drug group/Cell count of the control group)×100%.

HL-60 = experiment: as above; assay type: cell-based; conditions: Homo sapiens, HL-60, leukemia
Source text: as §2, §3, §4, §5

MOLM-13 = experiment: as above; assay type: cell-based; conditions: Homo sapiens, MOLM-13, leukemia
Source text: as §2, §3, §4, §5

[5] = test system: paclitaxel-resistant MX-1/T cells; experiment: Growth inhibition of paclitaxel-resistant breast cancer cells; conditions: for GI50: Homo sapiens, read-out: GI50 ± SD; for RI: resistance index: ratio of GI50 MX-1/T to MX-1
Experimental: as §7, §8, §9

A549/T xenograft = A549/T xenograft model in BALB/c-nu mice; assay type: in vivo; conditions: i.p. every other day, 10 times, colchicine 0.5 mg/kg, paclitaxel 10 mg/kg, methylaminocolchicine 0.25 and 0.5 mg/kg
Experimental: Male BALB/c-nu mice (aged 6-8 weeks and weighing 18-20 g) were purchased from Beijing HFK Bioscience Co., Ltd. A549/T cells in logarithmic growth phase were mixed with Matrigel, and inoculated subcutaneously in the right armpit of a BALB/c-nu mouse at a density of 5×10^6 cells/mouse.
The mental state of the mice was monitored every day. The mouse weight was measured and recorded, and mouse weight change curves were plotted based on the average body weight of each group. The long and short diameters of tumors were measured every two days, and the tumor volume was calculated according to the tumor volume calculation formula: tumor volume=(long diameter×short diameter^2)/2. Tumor growth curves were plotted (FIG. 1A).

A549 cells = experiment: Growth inhibition of parental NSCLC cells; assay type: cell-based, human
Experimental: as §1

[6] = test system: paclitaxel-resistant A549/T cells; conditions: 96 h
Experimental: as §6

[7] = test system: paclitaxel-resistant A549/T cells; conditions: for GI50: A549/T cells, salts (Table 3)
Experimental: as §7, §8, §9, §10

Porcine brain tubulin [8] = biological target: T1, Porcine brain tubulin (Sus scrofa, UniProt P02550+P02554); set-up: In vitro tubulin polymerization assay was carried out using purified tubulin; purchased Cytoskeleton, Denver, CO BK011P; host or cells: porcine brain (tissue-purified); conditions: It has been known; cited from earlier work
Porcine brain tubulin [9] = biological target: T1, Porcine brain tubulin
Experimental: In vitro tubulin polymerization assay was carried out using purified tubulin. BK011P-Tubulin Polymerization Assay Kit (Cytoskeleton, Denver, CO) was used. Porcine brain tubulin solution (2 mg/mL) was prepared by using tubulin buffer (80 mM PIPES, 2.0 mM MgCl2, 0.5 mM EGTA, 15% v/v glycerol, and 1 mM GTP). […] Fluorescence intensities (ex-360 nm, em-450 nm) was measured and monitored every 1 min, for consecutive 80 min (FIG. 2).

[10] = Homo sapiens, A549 parental cells, read-out: GI50 ± SD
[11] = ratio of GI50 A549/T to A549, salts (Table 3)
[12] = A549 cells, salts (Table 3), read-out: GI50

T1 sequence (P02550 whole entry): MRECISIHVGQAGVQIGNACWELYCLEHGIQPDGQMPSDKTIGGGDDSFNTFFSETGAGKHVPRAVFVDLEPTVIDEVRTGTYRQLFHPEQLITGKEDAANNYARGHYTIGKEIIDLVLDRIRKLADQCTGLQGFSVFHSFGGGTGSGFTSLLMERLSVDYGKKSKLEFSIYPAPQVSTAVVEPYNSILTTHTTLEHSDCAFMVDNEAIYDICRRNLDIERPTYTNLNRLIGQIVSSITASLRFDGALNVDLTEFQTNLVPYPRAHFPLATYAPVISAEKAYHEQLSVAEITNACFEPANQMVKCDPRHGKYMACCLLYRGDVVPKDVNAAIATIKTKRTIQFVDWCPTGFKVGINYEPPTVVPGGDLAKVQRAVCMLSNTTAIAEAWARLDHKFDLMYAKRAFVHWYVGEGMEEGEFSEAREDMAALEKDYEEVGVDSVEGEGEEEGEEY
T1 sequence (P02554 whole entry): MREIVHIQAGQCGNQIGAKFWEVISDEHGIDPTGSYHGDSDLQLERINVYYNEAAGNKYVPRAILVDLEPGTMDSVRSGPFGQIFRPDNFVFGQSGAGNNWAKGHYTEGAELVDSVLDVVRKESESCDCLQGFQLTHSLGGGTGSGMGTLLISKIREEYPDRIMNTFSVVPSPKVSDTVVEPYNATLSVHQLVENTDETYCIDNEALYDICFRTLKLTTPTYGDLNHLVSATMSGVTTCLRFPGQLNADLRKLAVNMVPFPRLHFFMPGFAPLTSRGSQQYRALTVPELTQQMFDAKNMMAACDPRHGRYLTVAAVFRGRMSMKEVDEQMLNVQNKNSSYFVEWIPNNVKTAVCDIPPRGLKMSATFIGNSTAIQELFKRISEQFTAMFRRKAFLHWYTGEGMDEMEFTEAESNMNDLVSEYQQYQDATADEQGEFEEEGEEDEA

`CN(C)CC#Cc1ccc(OCCCc2sc(N3CCc4cccc(C(=O)Nc5nc6ccccc6s5)c4C3)nc2C(=O)O)c(F)c1` [A1155463] showed an inhibition at 5 µM [1] of 6.97%, an inhibition at 10 µM [1] of 12.1% and an inhibition at 20 µM [1] of 23.7%.
With `Cc1c(-c2ccc(N3CCc4cccc(C(=O)Nc5nc6ccccc6s5)c4C3)nc2C(=O)O)cnn1CC12CC3CC(CC(C3)C1)C2` [A1331852] the inhibition at 5 µM [1] was 5.17%, the inhibition at 10 µM [1] was 11.2% and the inhibition at 20 µM [1] was 17.5%.
In the case of `COc1cc2c(c(OC)c1OC)-c1ccc(OC)c(=O)cc1[C@@H](NC(C)=O)CC2` [Colchicine], the GI50 [2] is reported as 1083 ± 2.37 nM, the GI50 (MX-1 cells) is reported as 57.9 ± 7.55 nM and the GI50 (MCF-7 cells) is reported as 51.4 ± 10.8 nM. The GI50 (KB cells) was 10.9 ± 1.26 nM, the GI50 [3] was 88.8 ± 9.83 nM and the GI50 [4] was 251 ± 61 nM. It also gave a GI50 (PC-3) of 90.5 ± 25.2 nM, a GI50 (HepG-2) of 57.7 ± 5.41 nM and a GI50 (HCT-116) of 79.3 ± 6.59 nM. The GI50 (Hela) was 124 ± 8.41 nM, the GI50 (K562) was 10.7 ± 1.5 nM and the GI50 (HL-60) was 9.3 ± 3.7 nM. The GI50 (MOLM-13) was 11.6 ± 1.21 nM, the GI50 [5] was 838.2 ± 2.62 nM and the Tumor growth inhibition (A549/T xenograft) was “neither paclitaxel nor colchicine can significantly inhibit the tumor growth”. For the same molecule, the GI50 (A549 cells; [10]) was 38.4 ± 3.37 nM.
For `CNc1ccc2c(cc1=O)C(NC(C)=O)CCc1cc(OC)c(OC)c(OC)c1-2` (stereo not drawn) [Methylaminocolchicine], the inhibition at 0.02 µM ([1]; read-out: Growth inhibition rate, A549/T, 96 h, methylaminocolchicine alone 20 nM) was 1%, the inhibition at 0.08 µM ([1]; read-out: Growth inhibition rate, A549/T, 96 h, methylaminocolchicine alone 80 nM) was 34.5% and the GI50 [2] was 23.64 ± 0.06 nM. It also gave a GI50 (MX-1 cells) of 11.2 ± 1.17 nM, a GI50 (MCF-7 cells) of 20.7 ± 2.8 nM and a GI50 (KB cells) of 6.41 ± 2.39 nM. The Growth inhibition rate ([6]; methylaminocolchicine alone 40 nM) was 3.08% and 0.97%, the Growth inhibition rate ([6]; methylaminocolchicine alone 80 nM) was 42.77% and 37.66% and 38.92% and the GI50 [3] was 36.3 ± 6.77 nM. It also gave a GI50 [4] of 47.6 ± 2.82 nM, a GI50 (PC-3) of 9.19 ± 0.81 nM and a GI50 (HepG-2) of 7.05 ± 1.74 nM. It also gave a GI50 (HCT-116) of 9.16 ± 4.19 nM, a GI50 (Hela) of 9.97 ± 2.34 nM and a GI50 (K562) of 5 ± 0.32 nM. The GI50 (HL-60) was 3.5 ± 0.14 nM, the GI50 (MOLM-13) was 4.87 ± 0.86 nM and the GI50 [5] was 11.4 ± 1.2 nM. The GI50 (A549 cells; [10]) was 6.88 ± 0.67 nM.
`CC1(C)CCC(c2ccc(Cl)cc2)=C(CN2CCN(c3ccc(C(=O)NS(=O)(=O)c4ccc(N[C@H](CCN5CCOCC5)CSc5ccccc5)c(S(=O)(=O)C(F)(F)F)c4)cc3)CC2)C1` [Navitoclax] gave an inhibition at 5 µM [1] of 2.84%, an inhibition at 10 µM [1] of 67.7% and an inhibition at 20 µM [1] of 96.3%.
For `CC(=O)O[C@H]1C(=O)[C@@]2(C)[C@H]([C@H](OC(=O)c3ccccc3)[C@]3(O)C[C@H](OC(=O)[C@H](O)[C@@H](NC(=O)c4ccccc4)c4ccccc4)C(C)=C1C3(C)C)[C@]1(OC(C)=O)CO[C@@H]1C[C@@H]2O` [Paclitaxel], the “RI: resistance index” value ([7]; ratio of GI50 A549/T to A549) was 209.45, the GI50 [2] was 4760 ± 75 nM and the GI50 (MX-1 cells) was 67.3 ± 5.92 nM. The GI50 (MCF-7 cells) was 58 ± 9.62 nM, the GI50 (KB cells) was 3.52 ± 0.95 nM and the GI50 [3] was 604 ± 28.6 nM. The “RI: resistance index” value [3] was 171.48, the GI50 [4] was 941 ± 265 nM and the “RI: resistance index” value [4] was 16.24. For the same molecule, the “Effect on tubulin polymerization (known action of control drugs)” value (Porcine brain tubulin [8]) was “promotes tubulin polymerization”, the GI50 [5] was 1130 ± 228 nM and the “RI: resistance index” value [5] was 16.73. For the same molecule, the Tumor growth inhibition (A549/T xenograft) was “neither paclitaxel nor colchicine can significantly inhibit the tumor growth” and the GI50 (A549 cells; [10]) was 23.1 ± 1.39 nM.
Work on `CC1(C)CCC(CN2CCN(c3ccc(C(=O)NS(=O)(=O)c4ccc(NCC5CCOCC5)c([N+](=O)[O-])c4)c(Oc4cnc5[nH]ccc5c4)c3)CC2)=C(c2ccc(Cl)cc2)C1` [Venetoclax] yielded an inhibition at 5 µM [1] of 23.2%, an inhibition at 10 µM [1] of 57.7% and an inhibition at 20 µM [1] of 95.5%.
With `CC[C@]1(O)C[C@H]2CN(CCc3c([nH]c4ccccc34)[C@@](C(=O)OC)(c3cc4c(cc3OC)N(C=O)[C@H]3[C@@](O)(C(=O)OC)[C@H](OC(C)=O)[C@]5(CC)C=CCN6CC[C@]43[C@@H]65)C2)C1` [Vincristine] the “RI: resistance index” value ([7]; ratio of GI50 A549/T to A549) was 24.7, the GI50 [2] was 1130 ± 12.7 nM and the GI50 (MX-1 cells) was 16.7 ± 6.87 nM. For the same molecule, the GI50 (MCF-7 cells) was 159 ± 44.6 nM, the GI50 (KB cells) was 2.69 ± 1.53 nM and the GI50 [3] was 268 ± 13.1 nM. For the same molecule, the “RI: resistance index” value [3] was 99.68, the GI50 [4] was 576 ± 80.7 nM and the “RI: resistance index” value [4] was 3.63. For the same molecule, the “Effect on tubulin polymerization (known action of control drugs)” value (Porcine brain tubulin [8]) was “inhibits it”, the “Effect on tubulin polymerization” value (Porcine brain tubulin [9]) was “Like vincristine, colchicine could inhibit tubulin polymerization” and the GI50 [5] was 262 ± 6.8 nM. The “RI: resistance index” value [5] was 14.47 and the GI50 (A549 cells; [10]) was 45.6 ± 3.68 nM.
For Methylaminocolchicine Hydrochloride, the GI50 [7] was 63.7 nM, the “RI: resistance index” value [7, 11] was 3.77 and the GI50 (A549 cells; [12]) was 16.9 nM.
With Methylaminocolchicine Mesylate the GI50 [7] was 29.9 nM, the “RI: resistance index” value [7, 11] was 1.76 and the GI50 (A549 cells; [12]) was 17 nM.
For Methylaminocolchicine Sulfate, the GI50 [7] was 42.4 nM, the “RI: resistance index” value [7, 11] was 1.94 and the GI50 (A549 cells; [12]) was 21.9 nM.
In the case of Methylaminocolchicine Tartrate, the GI50 [7] is reported as 32.4 nM, the “RI: resistance index” value [7, 11] is reported as 1.99 and the GI50 (A549 cells; [12]) is reported as 16.2 nM.
For “Methylaminocolchicine p-Toluenesulfonate”, the GI50 [7] was 72.7 nM, the “RI: resistance index” value [7, 11] was 3.98 and the GI50 (A549 cells; [12]) was 18.3 nM.
